US20220016048A1, “CANNABIDIOL-TYPE CANNABINOID COMPOUND” (GW Research Limited, priority 2018, published 2022)
Read-outs that look alike come from different tables or passages of the source.

Experiments:
Assay type in all cases: in vivo, rat
[1] = tested on: sub-chronic PCP-induced deficit in social behaviour in female Lister-Hooded rats; assay: social interaction test in sub-chronic PCP treated rats
Procedure: The aim of the current study was to investigate the ability of CBD-C4 (3, 10 & 30 mg/kg IP; 60 min pre-treatment (ptt)) in comparison with risperidone (an atypical antipsychotic; 0.1 mg/kg IP; 60 min pre-treatment), to antagonise a sub-chronic PCP (scPCP; 2 mg/kg IP; twice daily for 7-days; 7 day wash out)-induced deficit in social behaviour in female Lister-Hooded rats.
180 female Lister Hooded rats were used for this experiment, of which 90 were used for the drug study and 90 weight-matched untreated conspecifics were used as the companion rat, and their behaviour was not scored.
Rats were housed in groups of 5 under standard laboratory conditions under a 12-hr light: dark cycle, lights on at 0700 hr. Testing was carried out in the light phase. These studies were carried out in accordance with the Animals Scientific Procedures Act (UK, 1986).
CBD-C4 was used at doses of (3, 10, 30 mg/kg, i.p.) and risperidone was used at a dose of 0.1 mg/kg, i.p.
Rats were randomly assigned to two treatment groups and treated with vehicle, n=15 (distilled water, i.p.) or PCP, n=75 (2 mg/kg, i.p. twice daily for 7-days). This was followed by a 7-day wash out period before the rats were tested following acute treatment with CBD-C4, risperidone or vehicle.
Risperidone (0.1 mg/kg) was dissolved in a minimum volume of acetic acid, made up to volume with distilled water and pH adjusted to 6 with 0.1M NaOH and administered via the i.p. route in a volume of 1 ml/kg, 60 min prior to testing.
CBD-C4 (3, 10 & 30 mg/kg) was dissolved in 2:1:17 (Ethanol:Cremophor EL:Saline 0.9%). CBD-C4 was administered via the i.p. route in a volume of 5 ml/kg, 60 min prior to testing.
The social interaction test was performed in an open-field comprising a square box made of Plexiglas (52×52×31 cm) placed 27 cm above the floor on a moveable trolley. The floor of the box was white with black gridlines forming 9 identical squares on it. All other walls were black. A video camera connected to a video recorder and monitor was positioned above the box. The object used for the test consists of a heavy structure made of metal that cannot be displaced by the animals.
After a 7 day drug-free period, the rats were habituated to the test environment and arena prior to the test day. Habituation consisted of placing all rats from one cage together in the empty test arena for one hour for three days including the day before the test day.
Pairs of rats, weight matched (15-20 g) and unfamiliar to each other, receiving either no treatment (n=90 “conspecific” rats) or different treatments (PCP; n=15 “tested” rats, Vehicle; n=15 “tested” rats, or PCP+drug; n=60 “tested” rats) were placed in the test arena together for 10 minutes and behavior assessed as described below.
An inanimate object such as an unopened drink can was also placed in the centre of the arena to measure any differences in interaction of the test animal with an unfamiliar animal as opposed to an unfamiliar object. After each 10-minute trial, the object and arena were cleaned with 10% alcohol in an attempt to remove traces of any olfactory cues. All testing was carried out under standard room illumination levels (70 cd/m^2).
Behaviour in both trials was recorded on video for subsequent blind scoring. A behavioural scoring software program (Hindsight, Scientific programming services) was used to score the following parameters:
Investigative sniffing behaviour: sniffing the conspecific's snout or parts of the body including the anogenital region.
Following: rat moves after the conspecific i.e. a vehicle treated rat of the same species, around the arena.
Avoidances: actively turning away when approached by the conspecific animal.
Investigation of object: exploration of object placed in centre of the arena.
Locomotor activity is recorded by counting the total number of sectors (i.e. lines) crossed by the test rat.
All data were assessed for normality using D'Agostino and Pearson normality test. […]

[2] = Embryo-foetal development study in rats; conditions: female, Wistar (Han), rat, in vivo
Procedure: (§1) The objective of the study was to determine the effects of CBD-C4 on the embryonic and foetal development of the rat. The toxicokinetic profile of CBD-C4 was also assessed.
(§2) Three groups of 20 time-mated female Wistar (Han) rats were given CBD-C4 once daily by the oral (gavage) route from Day 6 to Day 17 of gestation at dose levels of 1, 10 or 100 mg/kg/day (at a constant dose volume of 5 mL/kg), to cover the period of organogenesis.
(§3) A similar group of rats was given the vehicle, sesame oil, following the same regimen to act as controls.
(§4) Blood samples were taken for toxicokinetic evaluation at pre-dose, 1, 2, 4, 6 and 24 hours after dosing on Days 6 and 17 of gestation. Clinical observations, body weight and food consumption were recorded. On Day 21 of gestation (GD 21) the females were euthanised, and the progress and outcome of pregnancy was evaluated.
(§5) Foetuses were evaluated for external, visceral and skeletal malformations and […]

[3] = tested on: pregnant Wistar (Han) rats; assay: Embryo-foetal development study in rats
Procedure: as §1, §2, §3, §4, §5

[4] = 13-week oral toxicity study in rats; conditions: both sexes, rat, in vivo
Procedure: (§6) The objective of the study was to determine the toxicity of CBD-C4 following daily oral (gavage) administration to the rat for 4 and 13 weeks. The toxicokinetic profile of the CBD-C4 was also assessed.
(§7) Groups of 10 male and 10 female rats were doses at 1, 10 and 100 mg/kg/day for either 4 or 13 weeks.
(§8) Assessment of toxicity of CBD-C4 was based on mortality, clinical observations, post-dose observations, body weights, food consumption, ophthalmic observations, clinical and anatomic pathology.
(§9) Blood samples were collected on days 1 and 28 and week 13 of the study.

[5] = tested on: rats; assay: 13-week oral toxicity study in rats
Procedure: as §6, §7, §8, §9

[6] = CBD-C4 3, 10, 30 mg/kg, risperidone 0.1 mg/kg i.p., data not shown
[7] = 1, 10 or 100 mg/kg/day oral, GD 6-17
[8] = 1, 10 or 100 mg/kg/day oral gavage, 4 or 13 weeks

C=C(C)[C@@H]1CCC(C)=C[C@H]1c1c(O)cc(CCCC)cc1O [CBD-C4, (1′R,2′R)-4-butyl-5′-methyl-2′-(prop-1-en-2-yl)-1′,2′,3′,4′-tetrahydro-[1,1′-biphenyl]-2,6-diol]
behavioural deficits induced by scPCP ([1]; 30 mg/kg i.p.): improved all the behavioural deficits
avoidance behaviour compared to the scPCP-treated group ([1]; 30 mg/kg i.p., 60 min pre-treatment): significantly decreased
following behaviour compared to scPCP ([1]; 30 mg/kg i.p., 60 min pre-treatment, P<0.001): significantly increased
sniffing behaviour compared to scPCP ([1]; 30 mg/kg i.p., 60 min pre-treatment, P<0.01): significant increase
line crossings (locomotor activity) [1, 6]: no significant effect
object exploration [1, 6]: no significant effect
any of the parameters measured in the social interaction test ([1]; lower doses 3 and 10 mg/kg i.p.): no effect
NOAEL ([2]; oral, embryo-foetal development study, sesame oil formulation (summary), read-out: NOAEL): 100 mg/kg
NOAEL ([2]; oral gavage GD 6-17, read-out: NOAEL for maternal and embryo-foetal toxicity): 100 mg/kg/day
mean body weight of females ([3]; 1 mg/kg/day): unaffected
foetal malformations ([3]; 10 mg/kg/day, different organ systems, no developmental pattern): two foetuses with malformations
mean food consumption ([3]; 100 mg/kg/day, two days after the start of dosing, compared with controls): Lower mean food consumption
CBD-C4-related foetal malformations ([3]; 1, 10 or 100 mg/kg/day): no CBD-C4-related foetal malformations
mean foetal weight and percentage of male foetuses ([3]; 1, 10 or 100 mg/kg/day): no effect
pregnancy parameters (number of implantations, pre- or post-implantation losses, number of live foetuses) ([3]; 1, 10 or 100 mg/kg/day): no effect
mortality [3, 7]: no mortality
treatment-related clinical observations [3, 7]: no treatment-related clinical observations
mean food consumption ([3]; 1 or 10 mg/kg/day): unaffected
mean body weight of females ([3]; 10 or 100 mg/kg/day, one day after the start of dosing on Day 6 of gestation): Dose-related mean body weight loss
foetal variations ([3]; any of the groups maternally dosed): no noteworthy foetal variations
tolerability ([3]; dose levels up to 100 mg/kg/day, pregnant rats): well tolerated
foetal malformations ([3]; maternally dosed at 1 or 100 mg/kg/day): no malformations
NOAEL at 13 weeks ([4]; 13-week daily oral gavage, rats): 100 mg/kg/day
NOAEL at 13 weeks ([4]; 13-week oral, sesame oil formulation, rats (summary)): 100 mg/kg
clinical pathology parameters [5, 8]: no adverse changes
clinical signs [5, 8]: no adverse clinical signs
food consumption, body weight, body weight gains and ophthalmoscopy [5, 8]: unaffected
test article-related deaths [5, 8]: no test article-related deaths
tolerability [5, 8]: well tolerated
liver findings ([5]; after 4 and 13 weeks of treatment, predominantly at 100 mg/kg/day, considered non-adverse): Large livers with correlating organ weight increase and centrilobular hypertrophy
